Reference: patent US12247972B2 (priority 2018, dated 2025)

Tests used:
[1] = tested on: NG108-15 cells (endogenous glutamate receptor); assay: Intracellular potential recording of cultured nerve cells with C-M magnet electrode (glutamate response); format: cell-based; conditions: final external fluid concentration 800 μM
Protocol: NG108-15 cells were used for the purpose of showing that recording is possible from cultured nerve cells. NG108-15 cells (neuroblastoma-glioma hybrid cells) were cultured in a culture medium containing DMEM (Sigma-Aldrich), HAT supplement (Thermofisher) and 10% FBS (Biowest). NG108-15 was seeded on a cover glass that was coated with 0.1% Polyethyleneimine (pH8.4, 150 mM Sodium Tetra-Borate (Wako)), and cultured in the culture medium, in which FBS concentration was reduced to 5% from the above culture medium, and the nerve differentiation was induced by adding 500 μM Ibuprofen (Wako). […]
PEI and PEG-gold coated magnetic nanoparticles were mixed and left at room temperature for 3 hours. This mixed solution is moved to the cell-adhesive surface of the neodymium magnet and left for additional 15 minutes to magnetically bond the gold nanoparticles to the neodymium magnet electrode.
The above nanoparticle-bonding magnet electrode was placed on the cultured cells placed on an iron plate. […]
In addition to the spontaneous action potential, the following experiment was conducted to confirm whether the neuronal activity by the neurotransmitter glutamate can be recorded. […] Glutamic acid was administered to the extracellular fluid (final external fluid concentration 800 μM), and the response mediated by glutamate receptors was recorded. […]

NG108-15 cells = assay: Intracellular potential recording in differentiated cultured nerve cells with MagEle not isolated from external fluid; format: cell-based; conditions: 3 mM; after 20 μM Veratridine
Protocol: In this experiment, the cultured nerve cells (NG108-15 cells) used in Example 3 were induced and differentiated into nerves under the same differentiation conditions as in the experiment example 3. In the same manner as in Example 3, the MagEle (magnet electrode) is moved from above the target cell toward the cell, and the conductive gold-coated magnetic nanoparticles adsorbed on the MagEle are adhered to the cell membrane to penetrate it. Then, the intracellular potential was measured by connecting the MagEle to the (+) pole and a conductor provided on an insulator (parafilm film) that completely covers the upper surface of the MagEle to the ground. At that time, although the insulator completely covered the top and sides of the (+) pole MagEle, the surface facing the cover glass, to which the cells adhere was not covered, and the cells were not isolated from the external fluid (FIG. 19).
The NG108-15 cells were differentiated by culturing for 3 weeks in DMEM/HAT medium containing 2% FBS supplemented with Forskolin (10 μM).

Structure (SMILES): N[C@@H](CCC(=O)O)C(=O)O [Glutamate, Glutamic acid]
- time for glutamate-induced membrane potential change to return to baseline ([1]; decay due to desensitization): about 90 seconds
- membrane potential response mediated by glutamate receptors ([1]; neural differentiation induction for 2 days): depolarization (upward change) response of the membrane potential

Structure (SMILES): CCN(CC)CC(=O)Nc1c(C)cccc1C [Lidocaine]
- spontaneous action potential induced by Veratridine (NG108-15 cells): suppressed
